Where “and” joins values, the source holds several entries; their conditions need not be identical. Equal entries are not always repeated.
Tests used:
grape phylloxera eggs = experiment: whole plant or invertebrate; conditions: for approximate egg hatch LD 50: egg tests with CNMA analogs; for nymphs that died in the shell (DIS): controls: Carbofuran 10 ppm, malathion 250 ppm, 7 days
Procedure: Mixed age groups of 60 grape phylloxera eggs were established on filter paper (Whatman #1, 5.5 cm circles) in 50×9 mm sealed plastic petri dishes treated with 100 μl of solution. A selected concentration of a test formulation of 400 μl was added to the filter disk and the dish closed with the petri dish cover and placed in a plastic container box. After 6 hours, the box was placed in an environmental chamber at 24° C. in the dark. The eggs were placed in groups of 10. After one week, the percentage of hatch is determined. In an initial test, doses from 0.1 to 25,000 ppm cinnamic aldehyde in 6% NaHCO3 and 2% Tween 80 were evaluated with a single group of eggs at each dosage. Three replicates of the experiment were performed. […] LD50 and LD95 were determined by probit analysis.
Grape phylloxera eggs were treated with cinnamaldehyde (CNMA) in a 6% NaHCO3, 2% Tween-80 formulation in a laboratory bioassay. Mortality of the eggs was indicated by failure of the egg shell to split. […] Leaves of one-year-old greenhouse Vitis vinifera cultivar Merlot vines heavily infested with grape phylloxera were sprayed to run-off with a CNMA treatment using the same formulation. […] Roots taken from plants 1, 2 and 5 weeks after CNMA or other treatments were placed in Petri dish bioassays and infested with untreated phylloxera eggs.
Eggs of various age classes were placed on Whatman #1 filter paper moistened with enough treatment solution to form a meniscus about halfway up the sides of the eggs. The pieces of filter paper with eggs were maintained in sealed plastic Petri dishes at […] until they were 7 days old and then hatched individuals were counted. Hatch was considered successful if the […]

powdery mildew = powdery mildew on roses, disease rating / MPDC after foliar spray; format: in vivo, Sphaerotheca pannosa; conditions: for Mean % Disease Control, rose powdery mildew: no aldehyde: additive alone (T80 10 g, NaHCO3 80 g) or Benomyl per manufacturer instructions, four days
Procedure: Each formulation is evaluated for its effect on specific pests and/or plant host using any of the compounds of formula (1) as well as other components of the formulation such as Tween 80 and/or sodium bicarbonate, with the combination and effective amount of each component adapted for a particular application to minimize toxicity while maintaining or increasing the antipathogenic effect of the formulation. The effective amount of each component may be determined by systematically varying the amount of that component in a test formulation, treating a plant of interest with the test formulation, and monitoring the level of pest infestation compared to an untreated control plant. An effective amount of a test component is identified as the amount that controls the growth of the pathogen on the plant host, thus reducing the disease rating of the plant. The mean percentage disease […] (MPDC) can be calculated for each particular application. MPDC is defined by the formula: [formula] Eight cultivars of rose were tested to investigate the effect of a cinnamic aldehyde/NaHCO3 formulation on rust and spores. The cultivars used included Moss unnamed (Moss), […], Rosette Delize (Hybrid Tea), Rosa Rugosa Rubra (Rugosa), Abel Morrison (Hybrid perpetual), John Laing, Betty Prior, and Rose de Roi. […] The Hybrid Tea and Hybrid perpetual were rated 3 and the Rugosa was rated 1. […] Control plants received no treatment. […] Moreover, the treatment appeared to have induced systemic resistance. […] Plants were an average of 0.86 m apart. […] Controls were untreated plants. […] Weekly reviews were made of the various plants. […] of infected rose in dedicated experimental rose gardens were used. Four Mrs. John Laing (Hybrid perpetual) and two Marchionese of Londonderry (Hybrid perpetual) rose plants were treated with one of two formulations of coniferyl aldehyde. […] The first two Mrs. […] Mrs. […] Both Marchionese of Londonderry plants (P5 and P6) were rated 5 for powdery mildew and rust after Paulus and Nelson (supra). Two treatment formulae were used for this trial. […] Control plants were sprayed with water alone. The change in the rating from pre-treatment to post-treatment was calculated as the mean percentage of disease control (MPDC) as described herein. A three treatment experiment with cinnamic aldehyde formula, coniferyl aldehyde formula and combined cinnamic and coniferyl aldehyde formula was carried out on field grown roses known to be susceptible to powdery mildew. The plants were blocked by variety before fungicide treatments and were randomized as to the plants. Two varieties were used in each of the three experiments described below. […] In experiment 3 Comte de Chambord (Portland) and Madame Pierre Oger (Bourbon) were used. In Experiment 1, the effect of cinnamic aldehyde alone and in combination with Tween 80 and/or NaHCO3 component was evaluated in experiment 2 the effect of coniferyl aldehyde alone and in combination with Tween 80 and/or NaHCO3 was evaluated and in experiment 3 a combination of cinnamic aldehyde and coniferyl aldehyde with Tween 80 and/or NaHCo3 was evaluated. […] See Table 3 for the treatment protocol; formula 1 was used for these experiments. […] Plants were evaluated using the Paulus/Nelson scale just prior to and four days after treatment. […] Moreover, cinnamic aldehyde, coniferyl aldehyde, Tween 80 and NaHCO3 are used in the food industry and there is likely to be little toxicological risk to the consumer or handler from any horticultural or food crop sprayed in this way. Similarly, as these chemicals leave no toxic residue, there is little chance of any detrimental effect on the wider environment, and their use is likely to be compatible with current biological control methods such as beneficial insects and/or microorganisms.

[1] = system: Fusarium subglutinans f. sp. pini; experiment: radial growth on amended potato dextrose agar; format: cell-based; conditions: controls: Saponin alone, 5 ppm Benomyl, Glutaraldehyde 2%; five days at 18° C
Procedure: A double-blind bioassay was undertaken using cinnamic aldehyde in various concentrations and formulations. The bioassay was based on inhibition of radial growth of Fusarium subglutinans f. sp. pini. Eight ml of formulation (concentration unknown) was pipetted into 200 ml of molten 2% potato dextrose agar (PDA) and the mixture was dispersed into five plastic petri dishes (25 ml dish). Each of four plates was inoculated at the center with an agar plug transferred from a growing PDA culture of Fusarium subglutinans f. sp. pini (isolate SL-1, UCB), while the fifth plate was left noninoculated as a control. These steps were repeated for each formulation of the cinnamic aldehyde. As a positive control, four PDA plates amended with 5 ppm benomyl were inoculated. as described; the negative control was four unamended PDA plates that were inoculated with F. subglutinans. All inoculated and non-inoculated plates were incubated at 18° C. for five days, after which colony diameters were measured.

[2] = system: silverleaf white fly, Bemisia argentifolii; experiment: silver leaf white fly Petri dish bioassay; conditions: for Silver Leaf White Fly Mortality (Percent): no aldehyde: T80 (10 g), NaHCO3, T80(2%) + NaHCO3 (6%) or Malathion (250 ppm) alone
Procedure: (§1) Activity of cinnamic aldehyde and/or coniferyl aldehyde against black bean aphid, Tetranychus urticae, and silverleaf white fly, Bemisia argentifolii was determined as follows:
Petri dishes (60 mm) were treated with cinnamic aldehyde at 10-25,000 ppm in 2% Tween 80 and 6% NaHCO3 dissolved in water, and allowed to air dry. Twenty adult silver leaf white fly were put in each dish, (replicate 10 times). The mortality after three hours in contact with a treated plate, was compared to that of silver leaf white fly in petri dishes treated only with diluent. Malathion at 250 ppm was used as a positive control.

[3] = system: root-knot nematode, Meloidogyne javanica; format: in vivo; conditions: controls: saponin alone (1:60 dilution of 10 brix concentrate; compared with 100% mortality), Ethanol (95%)
Procedure: In a double blind study, concentrations of the subject aldehyde compounds were tested for activity against root-knot nematode, Meloidogyne javanica. Nematodes were put in direct contact with the chemical and at 24 hour intervals, mortality was assessed both visually and by probing. Meloidogyne javanica were produced using hydroponics. The nematodes were harvested and used within 24 hours.
Approximately 100 nematodes in 0.07 mls of water were pipetted into a syracuse dish (Fisher) and 1 ml of test formulation was immediately pipetted into each dish. The dishes were then placed into plastic bags to retain moisture and prevent evaporation. Four syracuse dishes were used for each solution test formulation. […] Moving nematodes were counted as living.

grape phylloxera = grape phylloxera adult and nymphal mortality, root dip; format: in vivo, Daktulosphaira vitifoliae; conditions: Daktulosphaira vitifoliae, 120 h; positive control 250 ppm malathion in water; root dip; 5 days; read-out: mortality of adults and nymphs
Procedure: Approximately twenty four eggs of phylloxera were allowed to develop for up to 30 days on standard excised grape roots. At around 30 days, some of the insects were nymphs while others were adults. New eggs were removed during the process. Insect infected roots were submerged into a test formula for 6 seconds then set aside to dry in the air. The percentage of live insects, as defined by growth, oviposition or limb movement, was determined after 5 days. An insect was considered dead if it abandoned its feed site.
In an initial test, doses of 20,000 ppm cinnamic aldehyde in water (i.e., 2% cinnamic aldehyde) with various additives were evaluated. Cinnamic aldehyde without any additives produced 83.3% mortality. With-1% Tween 80 added, 91.7% mortality was seen. With 6% NaHCO3 added to a solution of 2% cinnamic aldehyde, 91.7% mortality was seen. With 1% Tween 80 and 6% NaHCO3 added to a solution of 2% cinnamic aldehyde, 100% mortality was seen. Water with no additives produced no mortality, while a positive control solution of 250 ppm malathion in water gave 100% mortality.
For nymph and adult tests, eggs were placed on excised root pieces similar to those used for rearing purposes and these were sealed in Petri dishes and held at 24° C. for 18-25 days to allow insects to hatch, initiate feeding sites and develop. At about this time about half the population was in the adult stage. Prior to testing, the population on each root was determined as well as the developmental stage of each insect. Eggs were removed. These root pieces were then dipped for 5 sec into test solutions and allowed to air dry before they were returned to Petri dishes, sealed and placed back in the temperature chamber at 24° C. Mortality was determined after 5 days. Insects were considered dead if they appeared black or desiccated and if they had not developed since the pre-treatment reading and had laid no or few new eggs.

phylloxera-biotype A = experiment: greenhouse Merlot vines infested with phylloxera, leaf spray, disease rating of roots; format: in vivo, Daktulosphaira vitifoliae; conditions: Experiment 2, 200 ppm Malathion leaf treatment
Text: For greenhouse tests, one year old potted V. vinifera cultivar merlot plants were used that had been obtained from Foundation Plant Material Service, University of California, Davis. The plants were potted in 10 cm diameter pots and were infested with phylloxera 5 weeks prior to treatment. At the time of spraying with a treatment solution, plant pots were placed in a plastic bag so that chemical runoff from the leaf sprays would not drip into the soil. The plants were sprayed to runoff with a household 1 liter-capacity plastic spray bottle. Plants were allowed to air dry outside and then replaced in the greenhouse. At intervals thereafter, the roots were separated from the potting mix and total phylloxera population estimated.

[4] = system: black bean aphid, Tetranychus urticae; experiment: aphid Petri dish bioassay; conditions: malathion 250 ppm, positive control; three hours contact
Procedure: as §1
Petri dishes (60 mm) were treated with cinnamic aldehyde at 10-25,000 ppm in 2% Tween 80 and 6% NaHCO3 dissolved in water, and the dishes allowed to air dry. Twenty adult aphids (Tetranychus urticae) were put in each dish, (replicate 10 times). The mortality after three hours in contact with a treated plate was compared to that of aphids in petri dishes treated only with diluent. Malathion (250 ppm) was used as a positive control.

## OCC=Cc1ccccc1 [Cinnamyl alcohol]
Grape phylloxera eggs
  approximate egg hatch LD 50: > 320 ppm and < 560 ppm

## CCCCNC(=O)n1c(NC(=O)OC)nc2ccccc21 [Benomyl, reference compound]
Powdery mildew
  Mean % Disease Control, rose powdery mildew: 79%
Powdery mildew; sprayed roses, parallel experiments
  Mean disease control: approximately 80%
[1]
  Colony diameter (cm): 0.000 cm and 0 cm

## CNC(=O)Oc1cccc2c1OC(C)(C)C2 [Carbofuran, reference compound]
Grape phylloxera eggs
  nymphs that died in the shell (DIS): 100%

## CCCCCCCC/C=C\CCCCCCCC(=O)OCCOCC(OCCO)C1OCC(OCCO)C1OCCO (stereo not shown) [T80, Tween 80]
Powdery mildew
  Mean % Disease Control, rose powdery mildew: 0%
[2]
  Silver Leaf White Fly Mortality (Percent): 14.5%

## O=C([O-])O.[Na+] [NaHCO3]
Powdery mildew
  Mean % Disease Control, rose powdery mildew: 44%
[2]
  Silver Leaf White Fly Mortality (Percent): 22.9%

## CCO [Ethanol, reference compound]
[3]
  mortality at 24 hours: killed all nematodes

## O=CCCCC=O [Glutaraldehyde, reference compound]
[1]
  Colony diameter (cm): 3.663 cm and 3.66 cm

## COC(=O)C=Cc1ccccc1 [Cinnamyl acid methyl ester]
Grape phylloxera eggs
  approximate egg hatch LD 50: > 320 ppm and < 560 ppm

## CCOC(=O)CC(SP(=S)(OC)OC)C(=O)OCC (stereo not shown) [malathion, reference compound]
Grape phylloxera
  mortality at 250 ppm: 100%
Grape phylloxera eggs
  nymphs that died in the shell (DIS): 100%
phylloxera-biotype A; 1 day post treatment
  Average disease rating (0-4): 4 (3)
phylloxera-biotype A; 2 days post treatment
  Average disease rating (0-4): 2.3(3)
phylloxera-biotype A; 7 days post treatment
  Average disease rating (0-4): 0(2)
[2]; malathion 250 ppm, positive control, three hours contact
  silver leaf white fly killed: 100%
[4]
  aphids killed: 100%

Reference: patent US20030005484A1, “Microbiocidal and pesticidal aromatic aldehydes” (ProGuard, Inc., priority 1994, published 2003)
